Measured values published in patent US9782412B2, “Preventive and/or therapeutic agent of immune disease” (TAIHO PHARMACEUTICAL CO., LTD., priority 2015, dated 2017).

biological target: T1, recombinant human BTK protein (Homo sapiens, UniProt Q06187); experiment: Measurement of BTK inhibitory activity (in vitro); assay type: biochemical; conditions: ATP 45 μM, 40 minutes at 25° C.
T1 construct: purchased Carna Biosciences, Inc
Description: Regarding the setting of the conditions for a method for measuring the inhibitory activity of a compound against BTK kinase activity in vitro, it is described in the consumable reagent supplies price list for LabChip (registered trademark) series of PerkinElmer, Inc. that FL-PEPTIDE 2 corresponds to a substrate peptide for the measurement of BTK kinase activity. Therefore, FL-PEPTIDE 2 was used as a substrate. The purified recombinant human BTK protein used in the test was purchased from Carna Biosciences, Inc.
Regarding the measurement of the inhibitory activity of the compounds, firstly, the compounds of the present invention were diluted stepwise with DMSO. Subsequently, BTK protein, a substrate peptide (final concentration was 1 μM), magnesium chloride (final concentration was 10 mM), ATP (final concentration was 45 μM), and a DMSO solution of the compounds of the present invention (final concentration of DMSO was 5%) were added to a buffer solution for kinase reaction (20 mM HEPES (pH 7.5), 2 mM dithiotheitol, 0.01% Triton X-100), and after the solution was incubated for 40 minutes at 25° C., a kinase reaction was carried out. The reaction was terminated by adding EDTA thereto so as to obtain a final concentration of 30 mM. Finally, a substrate peptide that was not phosphorylated (S) and a phosphorylated peptide (P) were separated and detected by microchannel capillary electrophoresis with a LabChip EZ Reader II (PerkinElmer, Inc.).

T1 sequence (Q06187 whole entry): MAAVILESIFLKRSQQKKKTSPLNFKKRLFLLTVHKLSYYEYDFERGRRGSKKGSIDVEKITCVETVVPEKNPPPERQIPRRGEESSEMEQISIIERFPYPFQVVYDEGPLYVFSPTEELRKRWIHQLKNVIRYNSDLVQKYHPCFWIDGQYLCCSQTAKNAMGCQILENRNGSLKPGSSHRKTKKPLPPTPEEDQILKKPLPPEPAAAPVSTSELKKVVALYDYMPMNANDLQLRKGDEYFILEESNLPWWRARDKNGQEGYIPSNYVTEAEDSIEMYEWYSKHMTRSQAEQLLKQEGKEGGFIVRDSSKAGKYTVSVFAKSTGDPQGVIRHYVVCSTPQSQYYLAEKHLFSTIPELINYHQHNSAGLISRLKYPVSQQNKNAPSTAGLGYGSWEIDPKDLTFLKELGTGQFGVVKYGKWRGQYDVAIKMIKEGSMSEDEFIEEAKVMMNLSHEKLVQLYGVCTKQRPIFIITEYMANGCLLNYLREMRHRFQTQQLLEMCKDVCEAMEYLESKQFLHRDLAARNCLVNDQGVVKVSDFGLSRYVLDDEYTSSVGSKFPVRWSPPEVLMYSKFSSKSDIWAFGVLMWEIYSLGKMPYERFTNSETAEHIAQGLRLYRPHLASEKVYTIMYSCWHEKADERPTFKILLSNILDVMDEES

Which IC50 does the source give for `C=CC(=O)N1CCC[C@@H](n2nc(C(=O)Nc3nc4cc(OC)ccc4o3)c3c(N)ncnc32)C1` [Example 7, (R)-1-(1-acryloylpiperidin-3-yl)-4-amino-N-(5-methoxybenzo[d]oxazol-2-yl)-1H-pyrazolo[3,4-d]pyrimidine-3-carboxamide] here?
Its IC50 is 0.457 nM.

With `C=CC(=O)N1CC[C@@H](n2nc(C(=O)Nc3nc4cc(OC)ccc4o3)c3c(N)ncnc32)C1` [Example 38, (R)-1-(1-acryloylpyrrolidin-3-yl)-4-amino-N-(5-methoxybenzo[d]oxazol-2-yl)-1H-pyrazolo[3,4-d]pyrimidine-3-carboxamide] as the compound, how does the IC50 read?
Its IC50 is 0.888 nM.

Which IC50 does the source give for `C=CC(=O)N1CC[C@@H](n2nc(C(=O)Nc3nc4ccccc4o3)c3c(N)ncnc32)C1` [Example 27, (R)-1-(1-acryloylpyrrolidin-3-yl)-4-amino-N-(benzo[d]oxazol-2-yl)-1H-pyrazolo[3,4-d]pyrimidine-3-carboxamide] here?
The IC50 was 1.43 nM.

tested on: A431 cells/TMD8 cells; experiment: Proliferation inhibitory activity against cell lines expressing BTK and EGFR, comparison of selectivity; assay type: cell-based, human; conditions: cells cultured three days with compound, CELLTITER GLO
Description: TMD8 cells, which are of a diffuse large B-cell lymphoma cell line expressing BTK, were suspended in RPMI1640 medium (Life Technologies Corp.) containing 10% fetal bovine serum. A431 cells, which are of an EGFR-overexpressing, highly activated human epidermoid carcinoma cell line, were suspended in DMEM, high glucose medium (Life Technologies Corp.) containing 10% fetal bovine serum. The cell suspensions were inoculated into each well of 384-well flat-bottomed microplates, and the cells were cultured for one day at 37° C. in an incubator containing 5% carbon dioxide gas. […] A DMSO solution of the test compounds was diluted with the medium used in the suspension of the each cell, and this was added to each of the wells of the cell culture plates such that the final concentration of DMSO would be 0.2%. The cells were further cultured for three days at 37° C. in an incubator containing 5% carbon dioxide gas. […] Proliferation inhibition ratio (%)=(C−T)/(C−C0)×100
T: Luminescence intensity of a well in which the test compound was added
C: Luminescence intensity of a well in which the test compound was not added
C0: Luminescence intensity of a well measured before the addition of the test compound
When a comparison is made between the cell proliferation inhibitory activity against A431 cells that depends on the EGFR proliferation signaling and the cell proliferation inhibitory activity against TMD8 cells that depends on the BTK proliferation signaling, the influence of the respective kinases at a cellular level is able to be evaluated. That is, when the “A431 cell proliferation inhibition ratio/TMD8 cell proliferation inhibition ratio” is calculated, it is contemplated that as the value of the ratio is larger, the selectivity to BTK over EGFR in the cells is higher.

How did the “A431 cell proliferation inhibition ratio/TMD8 cell proliferation inhibition ratio” value turn out when `Nc1ncnc2c1c(C(=O)Nc1nc3cc(Cl)ccc3o1)cn2[C@@H]1CCN(C(=O)/C=C/CN2CCCC2)C1` [Example 53, (R,E)-4-amino-N-(5-chlorobenzo[d]oxazol-2-yl)-7-(1-(4-(pyrrolidin-1-yl)but-2-enoyl)pyrrolidin-3-yl) 7H-pyrrolo[2,3-d]pyrimidine-5-carboxamide] was run?
The value was over 1535.4.

How did the “A431 cell proliferation inhibition ratio/TMD8 cell proliferation inhibition ratio” value turn out when `Nc1ncnc2c1c(C(=O)Nc1nc3cc(Cl)ccc3o1)nn2[C@@H]1CCCN(C(=O)/C=C/CN2CCCC2)C1` [Example 19, (R,E)-4-amino-N-(5-chlorobenzo[d]oxazol-2-yl)-1-(1-(4-(pyrrolidin-1-yl)but-2-enoyl)piperidin-3-yl)-1H-pyrazolo[3,4-d]pyrimidine-3-carboxamide] was run?
Its value is over 17825.3.

With `CC(C)N(C)C/C=C/C(=O)N1CC[C@@H](n2cc(C(=O)Nc3nc4cc(Cl)ccc4o3)c3c(N)ncnc32)C1` [Example 52, (R,E)-4-amino-N-(5-chlorobenzo[d]oxazol-2-yl)-7-(1-(4-(isopropyl(methyl)amino)but-2-enoyl)pyrrolidin-3-yl) 7H-pyrrolo[2,3-d]pyrimidine-5-carboxamide] as the compound, how does the “A431 cell proliferation inhibition ratio/TMD8 cell proliferation inhibition ratio” value read?
The value was over 3617.9.

`CCN(CC)C/C=C/C(=O)N1CC[C@@H](n2cc(C(=O)Nc3nc4cc(Cl)ccc4o3)c3c(N)ncnc32)C1` [Example 51, (R,E)-4-amino-N-(5-chlorobenzo[d]oxazol-2-yl)-7-(1-(4-(diethylamino)but-2-enoyl)pyrrolidin-3-yl) 7H-pyrrolo[2,3-d]pyrimidine-5-carboxamide] was tested. Which “A431 cell proliferation inhibition ratio/TMD8 cell proliferation inhibition ratio” value did it give?
Its value is over 2044.6.

Which “A431 cell proliferation inhibition ratio/TMD8 cell proliferation inhibition ratio” value does the source give for `C=CC(=O)N1CC[C@@H](n2nc(C(=O)Nc3nc4cc(CCOC)ccc4o3)c3c(N)ncnc32)C1` [Example 40, (R)-1-(1-acryloylpyrrolidin-3-yl)-4-amino-N-(5-(2-methoxyethyl)benzo[d]oxazol-2-yl)-1H-pyrazolo[3,4-d]pyrimidine-3-carboxamide] here?
Its value is over 3159.6.

For `CC(C)N(C)C/C=C/C(=O)N1CC[C@@H](n2nc(C(=O)Nc3nc4cc(Cl)ccc4o3)c3c(N)ncnc32)C1` [Example 35, (R,E)-4-amino-N-(5-chlorobenzo[d]oxazol-2-yl)-1-(1-(4-(isopropyl(methyl)amino)but-2-enoyl)pyrrolidin-3-yl)-1H-pyrazolo[3,4-d]pyrimidine-3-carboxamide], which “A431 cell proliferation inhibition ratio/TMD8 cell proliferation inhibition ratio” value is on record?
Its value is over 18691.6.

With `CN(C)C/C=C/C(=O)N1CC[C@@H](n2cc(C(=O)Nc3nc4cc(Cl)ccc4o3)c3c(N)ncnc32)C1` [Example 49, (R,E)-4-amino-N-(5-chlorobenzo[d]oxazol-2-yl)-7-(1-(4-(dimethylamino)but-2-enoyl)pyrrolidin-3-yl) 7H-pyrrolo[2,3-d]pyrimidine-5-carboxamide] as the compound, how does the “A431 cell proliferation inhibition ratio/TMD8 cell proliferation inhibition ratio” value read?
The value was over 3260.5.

Which “A431 cell proliferation inhibition ratio/TMD8 cell proliferation inhibition ratio” value does the source give for `Nc1ncnc2c1c(C(=O)Nc1nc3cc(Cl)ccc3o1)nn2[C@@H]1CCCN(C(=O)/C=C/CN2CCCCC2)C1` [Example 20, (R,E)-4-amino-N-(5-chlorobenzo[d]oxazol-2-yl)-1-(1-(4-(piperidin-1-yl)but-2-enoyl)piperidin-3-yl)-1H-pyrazolo[3,4-d]pyrimidine-3-carboxamide] here?
Its value is over 19120.5.

Which “A431 cell proliferation inhibition ratio/TMD8 cell proliferation inhibition ratio” value does the source give for `C=CC(=O)N1CCC[C@@H](n2nc(C(=O)Nc3nc4cc(C)c(C)cc4o3)c3c(N)ncnc32)C1` [Example 23, (R)-1-(1-acryloylpiperidin-3-yl)-4-amino-N-(5,6-dimethylbenzo[d]oxazol-2-yl)-1H-pyrazolo[3,4-d]pyrimidine-3-carboxamide] here?
The value was over 10680.

How did the “A431 cell proliferation inhibition ratio/TMD8 cell proliferation inhibition ratio” value turn out when `CCN(CC)C/C=C/C(=O)N1CCC[C@@H](n2nc(C(=O)Nc3nc4cc(Cl)ccc4o3)c3c(N)ncnc32)C1` [Example 17, (R,E)-4-amino-N-(5-chlorobenzo[d]oxazol-2-yl)-1-(1-(4-(diethylamino)but-2-enoyl)piperidin-3-yl)-1H-pyrazolo[3,4-d]pyrimidine-3-carboxamide] was run?
The value was over 12345.7.

With `C=CC(=O)N1CC[C@@H](n2nc(C(=O)Nc3nc4cc(C#N)ccc4o3)c3c(N)ncnc32)C1` [Example 39, (R)-1-(1-acryloylpyrrolidin-3-yl)-4-amino-N-(5-cyanobenzo[d]oxazol-2-yl)-1H-pyrazolo[3,4-d]pyrimidine-3-carboxamide] as the compound, how does the “A431 cell proliferation inhibition ratio/TMD8 cell proliferation inhibition ratio” value read?
The value was over 3510.0.

With `C=CC(=O)N1CCC[C@@H](n2nc(C(=O)Nc3nc4cc(Br)ccc4o3)c3c(N)ncnc32)C1` [Example 2, (R)-1-(1-acryloylpiperidin-3-yl)-4-amino-N-(5-bromobenzo[d]oxazol-2-yl)-1H-pyrazolo[3,4-d]pyrimidine-3-carboxamide] as the compound, how does the “A431 cell proliferation inhibition ratio/TMD8 cell proliferation inhibition ratio” value read?
Its value is over 1033.6.

Which “A431 cell proliferation inhibition ratio/TMD8 cell proliferation inhibition ratio” value does the source give for `CN(C)C/C=C/C(=O)N1CC[C@@H](n2nc(C(=O)Nc3nc4cc(Cl)ccc4o3)c3c(N)ncnc32)C1` [Example 32, (R,E)-4-amino-N-(5-chlorobenzo[d]oxazol-2-yl)-1-(1-(4-(dimethylamino)but-2-enoyl)pyrrolidin-3-yl)-1H-pyrazolo[3,4-d]pyrimidine-3-carboxamide] here?
Its value is over 11123.5.

With `CC(C)N(C)C/C=C/C(=O)N1CCC[C@@H](n2nc(C(=O)Nc3nc4cc(Cl)ccc4o3)c3c(N)ncnc32)C1` [Example 18, (R,E)-4-amino-N-(5-chlorobenzo[d]oxazol-2-yl)-1-(1-(4-(isopropyl(methyl)amino)but-2-enoyl)piperidin-3-yl)-1H-pyrazolo[3,4-d]pyrimidine-3-carboxamide] as the compound, how does the “A431 cell proliferation inhibition ratio/TMD8 cell proliferation inhibition ratio” value read?
The value was over 15625.0.

`Nc1ncnc2c1c(C(=O)Nc1nc3cc(Cl)ccc3o1)cn2[C@@H]1CCN(C(=O)/C=C/CN2CCCCC2)C1` [Example 54, (R,E)-4-amino-N-(5-chlorobenzo[d]oxazol-2-yl)-7-(1-(4-(piperidin-1-yl)but-2-enoyl)pyrrolidin-3-yl) 7H-pyrrolo[2,3-d]pyrimidine-5-carboxamide] was tested. Which “A431 cell proliferation inhibition ratio/TMD8 cell proliferation inhibition ratio” value did it give?
The value was over 2675.9.

`CCN(C)C/C=C/C(=O)N1CC[C@@H](n2cc(C(=O)Nc3nc4cc(Cl)ccc4o3)c3c(N)ncnc32)C1` [Example 50, (R,E)-4-amino-N-(5-chlorobenzo[d]oxazol-2-yl)-7-(1-(4-(ethyl(methyl)amino)but-2-enoyl)pyrrolidin-3-yl) 7H-pyrrolo[2,3-d]pyrimidine-5-carboxamide] was tested. Which “A431 cell proliferation inhibition ratio/TMD8 cell proliferation inhibition ratio” value did it give?
The value was over 2767.8.

`CCN(C)C/C=C/C(=O)N1CCC[C@@H](n2nc(C(=O)Nc3nc4cc(Cl)ccc4o3)c3c(N)ncnc32)C1` [Example 16, (R,E)-4-amino-N-(5-chlorobenzo[d]oxazol-2-yl)-1-(1-(4-(ethyl(methyl)amino)but-2-enoyl)piperidin-3-yl)-1H-pyrazolo[3,4-d]pyrimidine-3-carboxamide] was tested. Which “A431 cell proliferation inhibition ratio/TMD8 cell proliferation inhibition ratio” value did it give?
The value was over 16313.2.

With `CCN(CC)C/C=C/C(=O)N1CC[C@@H](n2nc(C(=O)Nc3nc4cc(Cl)ccc4o3)c3c(N)ncnc32)C1` [Example 34, (R,E)-4-amino-N-(5-chlorobenzo[d]oxazol-2-yl)-1-(1-(4-(diethylamino)but-2-enoyl)pyrrolidin-3-yl)-1H-pyrazolo[3,4-d]pyrimidine-3-carboxamide] as the compound, how does the “A431 cell proliferation inhibition ratio/TMD8 cell proliferation inhibition ratio” value read?
Its value is over 22471.9.
